IC50 data for one compound are collected here from PMC6270921, “Study on the Cytotoxic Activity of Drimane Sesquiterpenes and Nordrimane Compounds against Cancer Cell Lines” (Molecules, 2014).

The structures appear in SMILES notation.

What all share (type): cell-based
Data set [1] in a line: Cell viability, sulforhodamine B assay. The note with it: human, CCD 841 CoN colon epithelial cells (non-tumoral cell line), 72 h exposure, dilutions 12.5 to 100 μM, non-tumor cell line, read-out: Cytotoxicity IC50, CoN. The protocol:
(§1) The cytotoxicity of compounds 1–12 was evaluated in vitro against different cancer cell lines: MCF-7 breast cancer, DU-145 and PC-3 human prostate cancer, and one non-tumor cell line, human colon epithelial cells CCD 841 CoN (CoN). […] Four serial dilutions (from 12.5 to 100 μM) for each sample were evaluated in triplicate.
(§2) The experimental cell cultures were obtained from the American Type Culture Collection (Rockville, MD, USA). MCF-7 cells (breast cancer cell line), PC-3 and DU-145 (prostate cancer cell lines), and human colon epithelial cells CCD 841 CoN (non-tumoral cell line) were grown in Dulbecco’s modified Eagle’s medium (DMEM) containing 10% FCS, 100 U/mL penicillin, 100 μg/mL streptomycin, and 1 mM glutamine. Cells were seeded into 96 well microtiter plates in 100 μL at a plating density of 5 × 10^3 cells/well. After 24 h incubation at 37 °C under a humidified 5% CO2 atmosphere to allow cell attachment, the cells were treated with different concentrations of drugs and incubated for 72 h under the same conditions. Stock solutions of compounds were prepared in ethanol and the final concentration of this solvent was kept constant at 1%. Control cultures received 1% ethanol alone.
(§3) The sulforhodamine B assay was used according to the method of Skehan et al.. Briefly, the cells were set up at 3 × 10^3 cells per well of a 96 200 μL well, flat-bottomed, microplate. Cells were incubated at 37 °C in a humidified 5% CO2/95% air mixture and treated with the compounds at different concentrations for 72 h. At the end of drug exposure, cells were fixed with 50% trichloroacetic acid at 4 °C. After washing with water, cells were stained with 0.1% sulforhodamine B (Sigma-Aldrich, St. Louis, MO, USA), dissolved in 1% acetic acid (50 μL/well) for 30 min, and subsequently washed with 1% acetic acid to remove unbound stain. Protein-bound stain was solubilized with 100 μL of 10 mM unbuffered Tris base, and the cell density was determined using a […] plate reader (wavelength 540 nm). Values shown are the mean ± SD of three independent experiments in triplicate. The software used to calculate the IC50 values was GraphPad (GraphPad Software, San Diego, CA, USA).
(Sulforhodamine B stains cellular protein and so reports cell mass.)

For data set [2], the system named is DU-145 prostate cancer cell line. The experiment in a line: Cell viability, sulforhodamine B assay. The note with it: Homo sapiens, 72 h exposure, dilutions 12.5 to 100 μM, read-out: Cytotoxicity IC50, DU145. Here is the method: as §1, §2, §3
Data set [3] concerns PC-3 prostate cancer cell line. The experiment in a line: Cell viability, sulforhodamine B assay. Conditions: Homo sapiens, 72 h exposure, dilutions 12.5 to 100 μM, read-out: Cytotoxicity IC50, PC-3. Here is the method:
as §1, §2, §3

Data set [4] concerns MCF-7 breast cancer cell line. The data set is described as follows: Cell viability, sulforhodamine B assay. The note with it: Homo sapiens, MCF7, 72 h exposure, dilutions 12.5 to 100 μM, read-out: Cytotoxicity IC50, MCF-7. Here is the method:
as §1, §2, §3

By IC50 is commonly meant the midpoint of a concentration-inhibition curve. With `CC1(C)CCC[C@]2(C)[C@@H](C=O)C(C=O)=CC[C@@H]12` [Compound 1, polygodial], in data set [1], the half-inhibitory concentration (IC50) at 72 h is above 200 µM. Also, the values for the 50% inhibitory concentration (IC50) in data set [2], in data set [3] and in data set [4] were 71.4 ± 8.5 µM, 89.2 ± 6.8 µM and 93.7 ± 9.1 µM, respectively.
